Measured values from ChEMBL document CHEMBL1136686 (Bioorg Med Chem Lett, 2003).
pEC50, pIC50: −log10 of the molar value.

Assays:
Androgen receptor [1] = molecular target: T1, Androgen receptor (Mus musculus, UniProt P19091); test: Inhibitory activity against Androgen receptor
T1 sequence (P19091 whole entry): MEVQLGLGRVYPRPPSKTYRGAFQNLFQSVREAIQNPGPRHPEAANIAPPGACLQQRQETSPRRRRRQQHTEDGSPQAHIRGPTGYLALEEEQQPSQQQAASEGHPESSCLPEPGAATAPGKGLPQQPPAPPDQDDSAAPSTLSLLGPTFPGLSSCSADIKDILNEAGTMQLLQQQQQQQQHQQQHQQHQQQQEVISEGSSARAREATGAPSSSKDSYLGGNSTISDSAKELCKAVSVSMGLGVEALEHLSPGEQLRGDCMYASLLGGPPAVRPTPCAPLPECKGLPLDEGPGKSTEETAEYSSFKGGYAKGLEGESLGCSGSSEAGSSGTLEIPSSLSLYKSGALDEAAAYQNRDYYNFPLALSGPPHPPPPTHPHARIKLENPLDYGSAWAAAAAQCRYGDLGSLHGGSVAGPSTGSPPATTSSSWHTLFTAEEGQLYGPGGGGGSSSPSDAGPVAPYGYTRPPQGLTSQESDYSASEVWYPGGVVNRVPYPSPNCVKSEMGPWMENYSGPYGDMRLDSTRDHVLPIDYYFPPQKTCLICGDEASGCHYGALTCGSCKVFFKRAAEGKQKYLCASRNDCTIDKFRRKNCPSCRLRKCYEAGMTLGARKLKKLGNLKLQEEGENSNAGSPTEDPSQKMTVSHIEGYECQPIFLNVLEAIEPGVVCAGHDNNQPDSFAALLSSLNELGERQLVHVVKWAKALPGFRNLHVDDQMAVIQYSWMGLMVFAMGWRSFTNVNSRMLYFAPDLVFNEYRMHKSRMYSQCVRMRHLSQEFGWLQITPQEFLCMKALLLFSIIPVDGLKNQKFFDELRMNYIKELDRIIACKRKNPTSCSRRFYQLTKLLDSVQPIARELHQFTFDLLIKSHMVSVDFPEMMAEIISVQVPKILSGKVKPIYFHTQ

Glucocorticoid receptor [2] = molecular target: T2, Glucocorticoid receptor (Homo sapiens, UniProt P04150); test: Inhibitory activity against GR (glucocorticoid receptor)
T2 sequence (P04150 whole entry): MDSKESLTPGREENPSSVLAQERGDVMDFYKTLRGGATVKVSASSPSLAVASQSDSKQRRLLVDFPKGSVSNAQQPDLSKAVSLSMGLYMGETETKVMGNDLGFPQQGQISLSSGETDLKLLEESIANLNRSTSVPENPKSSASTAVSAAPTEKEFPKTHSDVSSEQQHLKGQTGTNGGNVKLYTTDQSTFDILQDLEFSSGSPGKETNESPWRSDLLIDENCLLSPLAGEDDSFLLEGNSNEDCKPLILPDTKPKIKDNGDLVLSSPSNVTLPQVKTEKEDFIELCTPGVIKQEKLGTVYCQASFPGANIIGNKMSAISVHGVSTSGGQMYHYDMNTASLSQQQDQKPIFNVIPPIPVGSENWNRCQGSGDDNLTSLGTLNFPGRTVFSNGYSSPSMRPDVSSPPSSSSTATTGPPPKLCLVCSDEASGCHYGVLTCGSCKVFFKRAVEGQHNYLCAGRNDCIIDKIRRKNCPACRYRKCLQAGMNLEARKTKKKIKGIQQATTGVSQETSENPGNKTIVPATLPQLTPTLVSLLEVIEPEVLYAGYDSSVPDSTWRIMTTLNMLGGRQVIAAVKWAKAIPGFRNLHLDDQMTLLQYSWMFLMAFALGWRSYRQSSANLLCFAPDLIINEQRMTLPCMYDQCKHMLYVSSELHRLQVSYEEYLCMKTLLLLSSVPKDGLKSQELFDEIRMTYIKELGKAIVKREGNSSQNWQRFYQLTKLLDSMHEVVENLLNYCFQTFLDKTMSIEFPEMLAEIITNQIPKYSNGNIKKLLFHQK

Progesterone receptor [3] = molecular target: T3, Progesterone receptor (Homo sapiens, UniProt P06401); test: Effective concentration against PR (progesterone receptor)
T3 sequence (P06401 whole entry): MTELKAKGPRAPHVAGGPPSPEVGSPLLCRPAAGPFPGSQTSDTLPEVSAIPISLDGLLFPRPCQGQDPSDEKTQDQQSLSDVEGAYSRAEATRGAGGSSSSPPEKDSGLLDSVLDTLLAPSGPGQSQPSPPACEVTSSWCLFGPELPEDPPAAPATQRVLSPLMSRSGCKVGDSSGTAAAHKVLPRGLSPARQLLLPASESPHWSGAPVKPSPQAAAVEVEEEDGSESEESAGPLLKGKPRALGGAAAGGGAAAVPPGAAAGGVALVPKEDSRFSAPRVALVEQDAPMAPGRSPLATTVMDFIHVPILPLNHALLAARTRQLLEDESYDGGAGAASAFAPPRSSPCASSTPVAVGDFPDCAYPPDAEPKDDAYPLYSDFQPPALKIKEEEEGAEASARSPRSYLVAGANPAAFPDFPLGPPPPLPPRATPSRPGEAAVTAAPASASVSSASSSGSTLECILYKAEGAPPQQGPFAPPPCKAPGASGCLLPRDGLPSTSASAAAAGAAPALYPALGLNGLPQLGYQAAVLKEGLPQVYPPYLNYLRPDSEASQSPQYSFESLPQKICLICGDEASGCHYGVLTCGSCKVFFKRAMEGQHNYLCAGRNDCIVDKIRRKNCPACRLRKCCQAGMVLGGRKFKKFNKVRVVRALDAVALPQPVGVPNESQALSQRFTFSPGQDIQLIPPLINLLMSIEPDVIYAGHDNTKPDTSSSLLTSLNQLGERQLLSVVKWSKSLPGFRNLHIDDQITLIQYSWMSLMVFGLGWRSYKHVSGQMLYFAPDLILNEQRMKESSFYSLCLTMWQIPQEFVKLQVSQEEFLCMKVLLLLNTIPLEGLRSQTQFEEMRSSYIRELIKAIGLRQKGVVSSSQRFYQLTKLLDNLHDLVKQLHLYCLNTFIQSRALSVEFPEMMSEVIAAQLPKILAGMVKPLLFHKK

Glucocorticoid receptor [4] = molecular target: T2, Glucocorticoid receptor; test: Effective concentration against GR (glucocorticoid receptor)
Progesterone receptor [5] = molecular target: T3, Progesterone receptor; test: Inhibition of [3H]P4 to progesterone receptor (PR) of human T47D breast carcinoma cells; type: cell-based
Androgen receptor [6] = molecular target: T1, Androgen receptor; test: Effective concentration against Androgen receptor
Progesterone receptor [7] = molecular target: T3, Progesterone receptor; test: Effective concentration on alkaline phosphatase activity in human T47D breast carcinoma cell line.; type: functional, cell-based

Compound `CC1(C)OC(=S)Nc2ccc(-c3csc(C#N)c3)cc21` has a pIC50 (Androgen receptor [1]) of 6.42, a pIC50 (Glucocorticoid receptor [2]) of 5.88 and a pEC50 (Progesterone receptor [3]) of 9.42. The pEC50 (Glucocorticoid receptor [4]) was under 5.00, the pIC50 (Progesterone receptor [5]) was 8.52 and the pEC50 (Androgen receptor [6]) was under 5.00. The pEC50 (Progesterone receptor [7]) was 9.40.
